# Results taken from PubChem BioAssay AID1963867 (Molecular Pharmacology Branch, DTP, NCI, 2024).
# Test system: KRAS-mutant PDC tumor spheroid with HUVEC/MSC, viability
# Assay: Anticancer human tumor 327498-153-R-J2-PDC patient-derived uterine carcinosarcoma cell line growth inhibition [KRAS2]
# Conditions: for IC50: curve of first compound; for viability, T/C: stronger effect = lower value
# In short: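 Combination screen of spheroid viability in tumor-cell co-cultures with endothelial (HUVEC) and mesenchymal stem cell stroma. Each agent was tested in half-log dilutions, topping at clinical Cmax or at 10 microM without a known Cmax.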
# [1] = second compound 0.1 µM, first compound 0.0316 µM
# [2] = second compound 0.1 µM, first compound 0.1 µM
# [3] = second compound 0.1 µM, first compound 0.316 µM
# [4] = second compound 0.1 µM, first compound 1 µM
# [5] = second compound 0.1 µM, first compound 3.16 µM
# [6] = second compound 0.1 µM, first compound 10 µM
# [7] = second compound 0.316 µM, first compound 0.0316 µM
# [8] = second compound 0.316 µM, first compound 0.1 µM
# [9] = second compound 0.316 µM, first compound 0.316 µM
# [10] = second compound 0.316 µM, first compound 1 µM
# [11] = second compound 0.316 µM, first compound 3.16 µM
# [12] = second compound 0.316 µM, first compound 10 µM
# [13] = second compound 1 µM, first compound 0.0316 µM
# [14] = second compound 1 µM, first compound 0.1 µM
# [15] = second compound 1 µM, first compound 0.316 µM
# [16] = second compound 1 µM, first compound 1 µM
# [17] = second compound 1 µM, first compound 3.16 µM
# [18] = second compound 1 µM, first compound 10 µM
# [19] = second compound 3.16 µM, first compound 0.0316 µM
# [20] = second compound 3.16 µM, first compound 0.1 µM
# [21] = second compound 3.16 µM, first compound 0.316 µM
# [22] = second compound 3.16 µM, first compound 1 µM
# [23] = second compound 3.16 µM, first compound 3.16 µM
# [24] = second compound 3.16 µM, first compound 10 µM
# [25] = second compound 10 µM, first compound 0.0316 µM
# [26] = second compound 10 µM, first compound 0.1 µM
# [27] = second compound 10 µM, first compound 0.316 µM
# [28] = second compound 10 µM, first compound 1 µM
# [29] = second compound 10 µM, first compound 3.16 µM
# [30] = second compound 10 µM, first compound 10 µM
# [31] = second compound 0.1 µM, first compound 0.000316 µM
# [32] = second compound 0.1 µM, first compound 0.001 µM
# [33] = second compound 0.1 µM, first compound 0.00316 µM
# [34] = second compound 0.1 µM, first compound 0.01 µM
# [35] = second compound 0.316 µM, first compound 0.000316 µM
# [36] = second compound 0.316 µM, first compound 0.001 µM
# [37] = second compound 0.316 µM, first compound 0.00316 µM
# [38] = second compound 0.316 µM, first compound 0.01 µM
# [39] = second compound 1 µM, first compound 0.000316 µM
# [40] = second compound 1 µM, first compound 0.001 µM
# [41] = second compound 1 µM, first compound 0.00316 µM
# [42] = second compound 1 µM, first compound 0.01 µM
# [43] = second compound 3.16 µM, first compound 0.000316 µM
# [44] = second compound 3.16 µM, first compound 0.001 µM
# [45] = second compound 3.16 µM, first compound 0.00316 µM
# [46] = second compound 3.16 µM, first compound 0.01 µM
# [47] = second compound 10 µM, first compound 0.000316 µM
# [48] = second compound 10 µM, first compound 0.001 µM
# [49] = second compound 10 µM, first compound 0.00316 µM
# [50] = second compound 10 µM, first compound 0.01 µM
# 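Note: spheroids exposed to agents for seven days before reading.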
# 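Throughout, for viability, T/C: 100% = DMSO vehicle wells so lower means fewer viable cells.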
SMILES,IC50 (second compound 0.1 µM) [µM],IC50 (second compound 0.316 µM) [µM],IC50 (second compound 1 µM) [µM],IC50 (second compound 3.16 µM) [µM],IC50 (second compound 10 µM) [µM],"viability, T/C [1] [%]","viability, T/C [2] [%]","viability, T/C [3] [%]","viability, T/C [4] [%]","viability, T/C [7] [%]","viability, T/C [8] [%]","viability, T/C [9] [%]","viability, T/C [10] [%]","viability, T/C [13] [%]","viability, T/C [14] [%]","viability, T/C [15] [%]","viability, T/C [19] [%]","viability, T/C [20] [%]","viability, T/C [25] [%]","viability, T/C [26] [%]",other results
CC(C)NCC(C(=O)N1CCN(c2ncnc3c2C(C)CC3O)CC1)c1ccc(Cl)cc1 (stereo not given) + CC1OCC2(CCN(c3cnc(Sc4ccnc(N)c4Cl)c(N)n3)CC2)C1N,0.105,< 0.0316,< 0.0316,< 0.0316,< 0.0316,59.3,52.5,32.5,22.5,43.1,33,16.4,13.8,29.1,20.7,14.5,20.9,15.3,16.4,12.2,"viability, T/C [5]: 16.5%; viability, T/C [6]: 11.9%; viability, T/C [11]: 10.8%; viability, T/C [12]: 7.02%; viability, T/C [16]: 8.77%; viability, T/C [17]: 7.91%; viability, T/C [18]: 5.17%; viability, T/C [21]: 9.04%; viability, T/C [22]: 6.16%; viability, T/C [23]: 5.92%; viability, T/C [24]: 4.91%; viability, T/C [27]: 9.27%; viability, T/C [28]: 6.34%; viability, T/C [29]: 4.8%; viability, T/C [30]: 3.45%"
CC(C)n1nc(-c2ccc3oc(N)nc3c2)c2c(N)ncnc21 + CC1OCC2(CCN(c3cnc(Sc4ccnc(N)c4Cl)c(N)n3)CC2)C1N,0.00217,0.000756,< 0.000316,< 0.000316,< 0.000316,8.54,5.56,–,–,6.36,4.27,–,–,6.01,3.72,–,4.67,3.18,4.21,3.29,"viability, T/C [31]: 70.3%; viability, T/C [32]: 72.7%; viability, T/C [33]: 38.3%; viability, T/C [34]: 18.5%; viability, T/C [35]: 61.8%; viability, T/C [36]: 46%; viability, T/C [37]: 28.2%; viability, T/C [38]: 14.3%; viability, T/C [39]: 41.2%; viability, T/C [40]: 32.8%; viability, T/C [41]: 20%; viability, T/C [42]: 10.4%; viability, T/C [43]: 31.4%; viability, T/C [44]: 22.6%; viability, T/C [45]: 13.8%; viability, T/C [46]: 8.15%; viability, T/C [47]: 22.9%; viability, T/C [48]: 19.6%; viability, T/C [49]: 11.7%; viability, T/C [50]: 7.42%"
CC1(C)CCC(CN2CCN(c3ccc(C(=O)NS(=O)(=O)c4ccc(NCC5CCOCC5)c([N+](=O)[O-])c4)c(Oc4cnc5[nH]ccc5c4)c3)CC2)=C(c2ccc(Cl)cc2)C1 + CC1OCC2(CCN(c3cnc(Sc4ccnc(N)c4Cl)c(N)n3)CC2)C1N,1.92,1.12,< 0.0316,< 0.0316,< 0.0316,64.6,67.3,73.2,66,53.7,48.5,51.1,56.4,42,42.7,42,32.6,33.3,23.6,28.6,"viability, T/C [5]: 37.6%; viability, T/C [6]: 3.49%; viability, T/C [11]: 28.6%; viability, T/C [12]: 1.66%; viability, T/C [16]: 41%; viability, T/C [17]: 25%; viability, T/C [18]: 0.76%; viability, T/C [21]: 30.8%; viability, T/C [22]: 25.9%; viability, T/C [23]: 15.6%; viability, T/C [24]: 0.57%; viability, T/C [27]: 23.7%; viability, T/C [28]: 25%; viability, T/C [29]: 15.4%; viability, T/C [30]: 0.27%"
CCN1CCN(Cc2ccc(Nc3ncc(F)c(-c4cc(F)c5nc(C)n(C(C)C)c5c4)n3)nc2)CC1 + CC1OCC2(CCN(c3cnc(Sc4ccnc(N)c4Cl)c(N)n3)CC2)C1N,0.00823,< 0.00316,< 0.00316,< 0.00316,< 0.00316,36.7,37.9,44.6,45.5,26.9,29.2,26.6,33.5,24.5,21.3,22,16.2,16.7,17.8,16.9,"viability, T/C [33]: 61.5%; viability, T/C [34]: 49%; viability, T/C [37]: 42.5%; viability, T/C [38]: 31.6%; viability, T/C [41]: 34.2%; viability, T/C [42]: 23.7%; viability, T/C [16]: 26.5%; viability, T/C [45]: 20%; viability, T/C [46]: 16.6%; viability, T/C [21]: 18.5%; viability, T/C [22]: 22.1%; viability, T/C [49]: 19%; viability, T/C [50]: 16.2%; viability, T/C [27]: 20.8%; viability, T/C [28]: 22%"
COc1cc2nccc(Oc3ccc(NC(=O)C4(C(=O)Nc5ccc(F)cc5)CC4)cc3)c2cc1OC + CC1OCC2(CCN(c3cnc(Sc4ccnc(N)c4Cl)c(N)n3)CC2)C1N,1.31,0.659,< 0.0316,< 0.0316,< 0.0316,70.9,76.3,61.8,60.5,53.3,53.5,46.9,49.5,38.5,35.9,32.2,29.9,31.5,24.6,21.9,"viability, T/C [5]: 21.6%; viability, T/C [6]: 2.02%; viability, T/C [11]: 20.5%; viability, T/C [12]: 1.95%; viability, T/C [16]: 31.9%; viability, T/C [17]: 10.8%; viability, T/C [18]: 1.02%; viability, T/C [21]: 23.1%; viability, T/C [22]: 21.3%; viability, T/C [23]: 14.4%; viability, T/C [24]: 0.53%; viability, T/C [27]: 23.6%; viability, T/C [28]: 22.1%; viability, T/C [29]: 9.8%; viability, T/C [30]: 0.48%"
Cn1ncnc1[C@H]1c2n[nH]c(=O)c3cc(F)cc(c23)N[C@@H]1c1ccc(F)cc1 + CC1OCC2(CCN(c3cnc(Sc4ccnc(N)c4Cl)c(N)n3)CC2)C1N,0.0109,0.00114,< 0.000316,< 0.000316,< 0.000316,31.4,18,–,–,23.3,15.6,–,–,15.6,13.2,–,11.2,9.64,12.4,8.58,"viability, T/C [31]: 71.8%; viability, T/C [32]: 68.1%; viability, T/C [33]: 59.4%; viability, T/C [34]: 55.2%; viability, T/C [35]: 58%; viability, T/C [36]: 51.1%; viability, T/C [37]: 40.7%; viability, T/C [38]: 38.2%; viability, T/C [39]: 45.5%; viability, T/C [40]: 37.2%; viability, T/C [41]: 26.6%; viability, T/C [42]: 21.4%; viability, T/C [43]: 30%; viability, T/C [44]: 32.2%; viability, T/C [45]: 25%; viability, T/C [46]: 19.2%; viability, T/C [47]: 29.5%; viability, T/C [48]: 27.1%; viability, T/C [49]: 21.9%; viability, T/C [50]: 15.5%"
